The values that follow come from patent publication US20230257372A1 (CHONG KUN DANG PHARMACEUTICAL CORP., priority 2020, published 2023).

Where two headings read alike, the source gives them in different places.

In experiment [1] the target is T1, human recombinant HDAC1 (Homo sapiens, UniProt Q13547).
T1 construct: purchased Enzo Life Science, Inc. BML-SE456
In words: HDAC1 enzyme activity inhibition (HDAC Fluorimetric Drug Discovery Kit). The experiment is classed as biochemical. To be noted: read-out: HDAC1. The procedure, abridged:
(§1)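 Compounds in 5-fold dilution series were incubated with […] enzyme and 10 μM substrate at 30° C for 60 minutes. Fluor de Lys Developer II was then added for 30 minutes to stop the reaction and develop the fluorescent signal.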

In experiment [2] the target is T2, human recombinant HDAC6 (Homo sapiens, UniProt Q9UBN7).
T2 construct: purchased Calbiochem Inc. 382180
T2 sequence (Q9UBN7 1-1215): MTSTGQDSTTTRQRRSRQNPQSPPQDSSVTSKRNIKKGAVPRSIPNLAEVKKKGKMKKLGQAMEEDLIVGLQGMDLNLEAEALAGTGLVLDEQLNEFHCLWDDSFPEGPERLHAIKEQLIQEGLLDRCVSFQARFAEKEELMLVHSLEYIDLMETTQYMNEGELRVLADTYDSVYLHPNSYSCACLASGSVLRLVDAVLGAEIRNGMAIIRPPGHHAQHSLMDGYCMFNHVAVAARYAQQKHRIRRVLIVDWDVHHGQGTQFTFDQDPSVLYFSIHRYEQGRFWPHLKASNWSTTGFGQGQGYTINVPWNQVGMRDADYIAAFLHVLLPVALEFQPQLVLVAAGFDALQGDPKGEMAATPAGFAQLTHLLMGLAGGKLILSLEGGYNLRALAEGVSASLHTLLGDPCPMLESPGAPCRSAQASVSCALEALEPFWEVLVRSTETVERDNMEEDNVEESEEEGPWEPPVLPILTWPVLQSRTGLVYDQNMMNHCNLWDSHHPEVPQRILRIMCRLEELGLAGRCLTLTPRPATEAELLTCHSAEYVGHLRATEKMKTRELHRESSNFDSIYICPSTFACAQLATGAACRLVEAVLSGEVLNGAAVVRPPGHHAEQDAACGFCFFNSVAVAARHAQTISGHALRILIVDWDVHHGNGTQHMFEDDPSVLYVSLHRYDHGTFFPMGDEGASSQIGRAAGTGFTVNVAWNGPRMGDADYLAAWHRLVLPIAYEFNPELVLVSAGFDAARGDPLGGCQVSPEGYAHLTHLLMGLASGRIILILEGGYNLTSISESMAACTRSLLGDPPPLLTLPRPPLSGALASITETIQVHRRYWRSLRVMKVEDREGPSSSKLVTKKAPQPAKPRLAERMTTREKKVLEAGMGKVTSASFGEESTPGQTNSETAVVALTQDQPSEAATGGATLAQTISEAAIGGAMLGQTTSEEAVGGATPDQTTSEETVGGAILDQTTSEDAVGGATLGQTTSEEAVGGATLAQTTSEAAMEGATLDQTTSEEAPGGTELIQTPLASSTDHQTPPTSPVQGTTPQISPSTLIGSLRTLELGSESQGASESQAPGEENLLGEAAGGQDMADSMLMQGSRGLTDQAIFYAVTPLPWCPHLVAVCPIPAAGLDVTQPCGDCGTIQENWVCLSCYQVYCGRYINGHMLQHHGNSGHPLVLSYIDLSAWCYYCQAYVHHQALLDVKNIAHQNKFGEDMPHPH
Kind of experiment: HDAC6 enzyme activity inhibition (HDAC Fluorimetric Drug Discovery Kit). The experiment is classed as biochemical. Put shortly:
as §1

Setting [3] is: human recombinant HDAC1, IC50 calculated with GraphPad Prism.
Setting [4] is: human recombinant HDAC6, IC50 calculated with GraphPad Prism.
Setting [5] is: human recombinant HDAC1, Fluor de Lys substrate, 30° C. 60 minutes.
Where [6] appears, read: human recombinant HDAC6, same protocol as HDAC1.

T1 sequence (Q13547 whole entry): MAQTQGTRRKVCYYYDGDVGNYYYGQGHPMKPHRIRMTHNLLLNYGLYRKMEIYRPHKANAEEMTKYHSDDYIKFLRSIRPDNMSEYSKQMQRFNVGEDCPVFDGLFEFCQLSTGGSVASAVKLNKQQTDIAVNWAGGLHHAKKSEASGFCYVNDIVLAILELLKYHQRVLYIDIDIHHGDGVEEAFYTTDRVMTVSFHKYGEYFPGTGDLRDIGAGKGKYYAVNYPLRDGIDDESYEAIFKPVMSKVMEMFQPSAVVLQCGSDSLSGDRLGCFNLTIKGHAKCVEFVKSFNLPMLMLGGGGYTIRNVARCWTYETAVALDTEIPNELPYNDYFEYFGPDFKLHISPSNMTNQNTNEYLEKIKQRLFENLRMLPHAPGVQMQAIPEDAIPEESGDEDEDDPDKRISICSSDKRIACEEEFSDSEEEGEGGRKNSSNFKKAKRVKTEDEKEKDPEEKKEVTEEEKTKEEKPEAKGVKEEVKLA

Consider `CC(C)(C)OC(=O)N1CCC(c2cn(Cc3ccc(-c4nnc(C(F)F)o4)cc3F)nn2)C1` (stereo not drawn) [Compound 3734, Tert-butyl 3-(1-(4-(5-(difluoromethyl)-1,3,4-oxadiazol-2-yl)-2-fluorobenzyl)-1H-1,2,3-triazol-4-yl)pyrrolidin-1-carboxylate], for which the IC50 in experiment [1] (setting [3]) is above 50000 nM; in experiment [2] (setting [4]) it was 244 nM. In experiment [2] (HDAC1 IC50 / HDAC6 IC50), the “HDAC6 selectivity (fold)” value was found to be 500 fold.
In the case of `O=C(Nc1cccc(-c2cn(Cc3ccc(-c4nnc(C(F)F)o4)cn3)nn2)c1)C1CN(C2COC2)C1` [Compound 4465], the IC50 in experiment [1] (setting [3]) is above 50000 nM; in experiment [2] (setting [4]), 22.5 nM. Besides, the “HDAC6 selectivity (fold)” value in experiment [2] (HDAC1 IC50 / HDAC6 IC50) worked out at 2222 fold.
As to `CC(C)(C)OC(=O)N1CC(c2cn(Cc3ccc(-c4nnc(C(F)F)o4)cn3)nn2)C1` [Compound 3926, Tert-butyl 3-(1-((5-(5-(difluoromethyl)-1,3,4-oxadiazol-2-yl)pyridin-2-yl)methyl)-1H-1,2,3-triazol-4-yl)azetidin-1-carboxylate], the IC50 in experiment [1] (setting [3]) is above 50000 nM; in experiment [2] (setting [4]) it was 162 nM. For the same molecule, in experiment [2] (HDAC1 IC50 / HDAC6 IC50), the “HDAC6 selectivity (fold)” value stood at 308 fold.
`CCN1CCC(c2cccc(-c3cn(Cc4ccc(-c5nnc(C(F)F)o5)cc4F)nn3)c2)CC1` [Compound 4291, 2-(difluoromethyl)-5-(4-((4-(3-(1-ethylpiperidin-4-yl)phenyl)-1H-1,2,3-triazol-1-yl)methyl)-3-fluorophenyl)-1,3,4-oxadiazole]: the figures for the IC50 in experiment [1] (setting [3]) and in experiment [2] (setting [4]) were above 50000 nM and 42.7 nM, respectively. Also, the “HDAC6 selectivity (fold)” value in experiment [2] (HDAC1 IC50 / HDAC6 IC50) is reported as 1170 fold.
The matching figures for `CCN1CCN(c2cccc(-c3cn(Cc4ccc(-c5nnc(C(F)F)o5)cc4)nn3)c2)CC1` [Compound 4368, 2-(difluoromethyl)-5-(4-((4-(3-(4-ethylpiperazin-1-yl)phenyl)-1H-1,2,3-triazol-1-yl)methyl)phenyl)-1,3,4-oxadiazole]: above 50000 nM, 32.6 nM and 1533 fold.
Regarding `NC1(C(=O)Nc2cccc(-c3cn(Cc4ccc(-c5nnc(C(F)F)o5)cn4)nn3)c2)CCC1` [Compound 4498, 1-amino-N-(3-(1-((5-(5-(difluoromethyl)-1,3,4-oxadiazol-2-yl)pyridin-2-yl)methyl)-1H-1,2,3-triazol-4-yl)phenyl)cyclobutan-1-carboxamide], the values for the IC50 in experiment [1] (setting [5]) and in experiment [2] (setting [6]) were above 50000 nM and 30.7 nM, respectively. Also, the “HDAC6 selectivity (fold)” value in experiment [2] (HDAC6 over HDAC1) was found to be 1628 fold.
For the molecule `CC(C)N1CCN(c2cc(-c3cn(Cc4ccc(-c5nnc(C(F)F)o5)cc4F)nn3)ccc2F)CC1` [Compound 4425], the figures for the IC50 in experiment [1] (setting [3]) and in experiment [2] (setting [4]) were above 50000 nM and 116 nM, respectively. The “HDAC6 selectivity (fold)” value in experiment [2] (HDAC1 IC50 / HDAC6 IC50) was found to be 431 fold.
As to `Fc1cc(-c2nnc(C(F)F)o2)ccc1Cn1cc(-c2ccnc(N3CCN(C4CCC4)CC3)c2)nn1` [Compound 4640, 2-(4-((4-(2-(4-cyclobutylpiperazin-1-yl)pyridin-4-yl)-1H-1,2,3-triazol-1-yl)methyl)-3-fluorophenyl)-5-(difluoromethyl)-1,3,4-oxadiazole], the figures for the IC50 in experiment [1] (setting [5]) and in experiment [2] (setting [6]) were above 50000 nM and 61.9 nM, respectively. In experiment [2] (HDAC6 over HDAC1), the “HDAC6 selectivity (fold)” value is listed as 807 fold.
Turning to `OC1(c2cn(Cc3ccc(-c4nnc(C(F)F)o4)cn3)nn2)COC1` [Compound 4276, 3-(1-((5-(5-(difluoromethyl)-1,3,4-oxadiazol-2-yl)pyridin-2-yl)methyl)-1H-1,2,3-triazol-4-yl)oxetan-3-ol], the IC50 is above 50000 nM in experiment [1] (setting [3]) and 349 nM in experiment [2] (setting [4]). Besides, the “HDAC6 selectivity (fold)” value in experiment [2] (HDAC1 IC50 / HDAC6 IC50) is 143 fold.
Take `Fc1cc(-c2nnc(C(F)F)o2)ccc1Cn1cc(-c2cccc(N3CCN(CC4CC(F)(F)C4)CC3)c2F)nn1` [Compound 4603, 2-(4-((4-(3-(4-((3,3-difluorocyclobutyl)methyl)piperazin-1-yl)-2-fluorophenyl)-1H-1,2,3-triazol-1-yl)methyl)-3-fluorophenyl)-5-(difluoromethyl)-1,3,4-oxadiazole]: the IC50 in experiment [1] (setting [5]) is above 50000 nM; in experiment [2] (setting [6]), 67.2 nM. The “HDAC6 selectivity (fold)” value in experiment [2] (HDAC6 over HDAC1) is given as 744 fold.
Regarding `CCN1CCN(Cc2ccc(-c3cn(Cc4ccc(-c5nnc(C(F)F)o5)cc4F)nn3)cc2)CC1` [Compound 4474, 2-(difluoromethyl)-5-(4-((4-(4-((4-ethylpiperazin-1-yl)methyl)phenyl)-1H-1,2,3-triazol-1-yl)methyl)-3-fluorophenyl)-1,3,4-oxadiazole], the IC50 is above 50000 nM in experiment [1] (setting [3]) and 41.2 nM in experiment [2] (setting [4]). Also, the “HDAC6 selectivity (fold)” value in experiment [2] (HDAC1 IC50 / HDAC6 IC50) came to 1213 fold.
For `FC(F)c1nnc(-c2ccc(Cn3cc(-c4cccc5[nH]cc(CN6CCOCC6)c45)nn3)nc2)o1` [Compound 4023, 4-((4-(1-((5-(5-(difluoromethyl)-1,3,4-oxadiazol-2-yl)pyridin-2-yl)methyl)-1H-1,2,3-triazol-4-yl)-1H-indol-3-yl)methyl)morpholine] the same measures were above 50000 nM, 1560 nM and 32 fold.
`CC1CCN(Cc2cc(Cl)cc(-c3cn(Cc4ncc(-c5nnc(C(F)F)o5)cc4F)nn3)c2)CC1` [Compound 19093, 2-(6-((4-(3-chloro-5-((4-methylpiperidin-1-yl)methyl)phenyl)-1H-1,2,3-triazol-1-yl)methyl)-5-fluoropyridin-3-yl)-5-(difluoromethyl)-1,3,4-oxadiazole]: the IC50 in experiment [1] (setting [5]) is above 50000 nM; in experiment [2] (setting [6]) it was 236 nM. Further, the “HDAC6 selectivity (fold)” value in experiment [2] (HDAC6 over HDAC1) stood at 211 fold.
Regarding `CN1CCN(c2cccc(-c3cn(Cc4ccc(-c5nnc(C(F)F)o5)cc4)nn3)c2F)CC1` [Compound 4483, 2-(difluoromethyl)-5-(4-((4-(2-fluoro-3-(4-methylpiperazin-1-yl)phenyl)-1H-1,2,3-triazol-1-yl)methyl)phenyl)-1,3,4-oxadiazole], the IC50 in experiment [1] (setting [3]) was above 50000 nM; in experiment [2] (setting [4]), 34.1 nM. In experiment [2] (HDAC1 IC50 / HDAC6 IC50), the “HDAC6 selectivity (fold)” value is reported as 1466 fold.
Consider `CN1CCc2cc(-c3cn(Cc4ccc(-c5nnc(C(F)F)o5)cc4F)nn3)sc2C1` [Compound 4500, 2-(difluoromethyl)-5-(3-fluoro-4-((4-(6-methyl-4,5,6,7-tetrahydrothieno[2,3-c]pyridin-2-yl)-1H-1,2,3-triazol-1-yl)methyl)phenyl)-1,3,4-oxadiazole], for which the IC50 is above 50000 nM in experiment [1] (setting [5]) and 121 nM in experiment [2] (setting [6]). Further, in experiment [2] (HDAC6 over HDAC1), the “HDAC6 selectivity (fold)” value is 413 fold.
For `CC1(C)CCN(Cc2ccc(-c3cn(Cc4ccc(-c5nnc(C(F)F)o5)cc4F)nn3)cn2)CC1` [Compound 17777, 2-(difluoromethyl)-5-(4-((4-(6-((4,4-dimethylpiperidin-1-yl)methyl)pyridin-3-yl)-1H-1,2,3-triazol-1-yl)methyl)-3-fluorophenyl)-1,3,4-oxadiazole] the same measures were above 50000 nM, 52.5 nM and 952 fold.
The matching figures for `CC(C)(C)OC(=O)N1CC(N2CCC(c3cccc(-c4cn(Cc5ncc(-c6nnc(C(F)F)o6)cc5F)nn4)c3)CC2)C1` [Compound 18872, tert-butyl 3-(4-(3-(1-((5-(5-(difluoromethyl)-1,3,4-oxadiazol-2-yl)-3-fluoropyridin-2-yl)methyl)-1H-1,2,3-triazol-4-yl)phenyl)piperidin-1-yl)azetidin-1-carboxylate]: above 50000 nM, 299 nM and 167 fold.
For `Fc1cc(-c2nnc(C(F)F)o2)ccc1Cn1cc(-c2ccnc3[nH]ccc23)nn1` [Compound 4526, 2-(4-((4-(1H-pyrrolo[2,3-b]pyridin-4-yl)-1H-1,2,3-triazol-1-yl)methyl)-3-fluorophenyl)-5-(difluoromethyl)-1,3,4-oxadiazole] the same measures were above 50000 nM, 13 nM and 3846 fold.
